# Laboratory results taken from patent US20210382058A1, “PATIENT SELECTION FOR TREATMENT OF MYC POSITIVE CANCERS WITH INDENOISOQUINOLINES” (Purdue Research Foundation, priority 2020, published 2021).
# Experiments:
# MycG4 (MycPu22 DNA) = test: 1H NMR titration of MycPu22 DNA; type: binding, human; conditions: 150 μM DNA, 25° C., pH 7, 100 mM K+
# Text: The binding interactions of six selected indenoisoquinolines with MycG4 were examined using ^1H NMR titration experiments in K^+-containing solution. […] The binding appeared to be in the medium-to-fast exchange rate on the NMR time-scale, as shown by the broadening of DNA proton peaks at lower drug equivalence (0.5 and 1) and the sharpening at higher drug equivalence (2 and 3). […] The MycG4 complexes of the five MycG4-interactive indenoisoquinolines were monomeric in nature as shown by native EMSA gels (FIG. 13).
# All NMR experiments were conducted using a Bruker AV-500 spectrometer equipped with a Prodigy cryoprobe at 25° C. Watergate water suppression technique was used to suppress water signals. Briefly, each DNA sample was prepared to a final concentration of […] in 75 mM KCl, 25 mM phosphate buffer at pH 7.0, and containing 90/10% H2O/D2O. DNA samples were heated to 95° C. for 5 min then cooled slowly to room temperature for G4 formation. ^1H-NMR titrations were performed by adding increasing amounts of the compound (0.5 to 4 equivalents) to the oligonucleotide solution.
# MycPu28 = test: Competition fluorescence displacement, competitor MycPu28; set-up: species or system human; conditions: competitor binding affinity; 20 nM 3′-TAMRA MycPu22, 20 nM compound, 20° C., pH 7, 100 mM K+
# Method: (§1) Using a competition fluorescence displacement assay, the binding selectivity of five indenoisoquinolines for MycG4 was determined as compared to a parallel K-Ras promoter G4, a hybrid telomeric G4, and double-stranded (ds) DNA at 1 and 5 equivalents of each compound (FIGS. 7 and 16A-16C). The 3′-TAMRA labeled MycPu22 DNA was used as the fluorescence probe, whose fluorescence was quenched upon the binding of indenoisoquinolines. Upon addition of unlabeled, non-fluorescent competitors (e.g. other DNA G4s and dsDNA), the TAMRA-labeled MycPu22 DNA is displaced by the competitor DNA for indenoisoquinoline binding and the initial high TAMRA-fluorescence is restored. The competition fluorescence displacement assay allows for a straightforward assessment of selective binding towards MycG4 vs. the competitors, i.e. MycG4s (parallel), K-Ras G4 (parallel), telomeric G4 (hybrid), and dsDNA. One and five compound equivalents were used to assess the selectivity of the strongest binding site and other binding sites of each indenoisoquinoline. […] As shown in the modeling study, the substituents on the A- and D-rings of indenoisoquinolines likely contribute to binding MycG4 by more optimal stacking interactions with the external G-tetrads. On the other hand, the increased size of the indenoisoquinoline ring system may hinder intercalation in dsDNA due to possible steric collision with the DNA backbone. […] 6-Substituted indenoisoquinolines were previously reported to bind to the c-Kit promoter G4s which were also primarily parallel.^17
# (§2) The competition fluorescence displacement experiments were performed on a Jasco FP-8300 Spectrofluorometer equipped with a temperature controller at 20° C. The stock solution containing 2 μM 3′-TAMRA-labelled MycPu22 oligonucleotide was diluted to 20 nM using 75 mM KCl, 25 mM phosphate buffer at pH 7.0. To check the binding selectivity of each compound to MycG4 DNA, 20 nM or 100 nM of the indenoisoquinoline was added to the DNA solution in a total volume of 1.6 mL in a quartz cell with a 10 mm path length. Subsequently, various unlabeled MycG4s (MycPu22 and MycPu28), K-Ras G4, telomeric G4 DNAs, or calf thymus dsDNA were gradually added to the complex solution. For each addition of the DNA, the sample was equilibrated at least 2 min. The fluorescence spectrum was recorded between 570 and 600 nm with an excitation wavelength of 555 nm, 10 nm bandwidths, 100 nm/min of scan speed, and 1 s of response time. The fluorescence intensities at the emission maximum (Δmax=580 nm) were plotted for figures. The competitor binding affinities (K, values) were calculated by
# (§3) using data from 20 nM compound. The C50 value was the concentration of the unlabeled competing DNA that recovers the fluorescence of the labelled DNA by 50%. [L] represents the ligand concentration that is a constant value of 20 nM. Kd,app values were obtained by fluorescence-based binding assay.
# [1] = biological target: K-RasG4 (parallel K-Ras promoter G4); test: Competition fluorescence displacement, competitor K-Ras G4; conditions: competitor binding affinity; 20 nM 3′-TAMRA MycPu22, 20 nM compound, 20° C., pH 7, 100 mM K+
# Method: as §1, §2, §3
# Telomeric G4 (hybrid) = test: Competition fluorescence displacement, competitor telomeric G4; type: binding; conditions: for binding selectivity for parallel G4s over hybrid G4: competition fluorescence displacement, 1 and 5 equivalents; for Ki: competitor binding affinity, 20 nM 3′-TAMRA MycPu22, 20 nM compound, 20° C., pH 7, 100 mM K+
# Method: as §1, §2, §3
# MycPu22 = test: Competition fluorescence displacement, competitor MycPu22; set-up: species or system human; conditions: competitor binding affinity; 20 nM 3′-TAMRA MycPu22, 20 nM compound, 20° C., pH 7, 100 mM K+
# Method: as §1, §2, §3
# calf thymus dsDNA = test: Competition fluorescence displacement, competitor dsDNA; type: binding; conditions: for binding selectivity for DNA G4s over dsDNA: competition fluorescence displacement, 1 and 5 equivalents; for Ki: competitor binding affinity, Ki refers to the base-pair concentration, 20 nM compound, 20° C., pH 7, 100 mM K+
# Method: as §1, §2, §3
SMILES,binding to MycG4 by 1H NMR titration (MycG4 (MycPu22 DNA)),Ki (MycPu28),Ki [1],binding selectivity for parallel G4s over hybrid G4 (Telomeric G4 (hybrid)),Ki (Telomeric G4 (hybrid)),Ki (MycPu22),binding selectivity for DNA G4s over dsDNA (calf thymus dsDNA),Ki (calf thymus dsDNA)
O=C1c2ccccc2-c2c1c1ccccc1c(=O)n2CCCNCCO [Compound 13],more specific binding to MycG4,19 nM,23 nM,selectivity for parallel G4s over hybrid G4,146 nM,26 nM,much less selectivity against dsDNA,2140 nM
COc1cnc2c(c1)C(=O)c1c-2n(CCCNC(C)C)c(=O)c2cc(F)ccc12 [Compound 5],more specific binding to MycG4,18 nM,21 nM,marked selectivity,164 nM,16 nM,remarkable selectivity,~11000 nM
CNCCCn1c2c(c3ccc(F)cc3c1=O)C(=O)c1cc(OC)cnc1-2 [Compound 6],more specific binding to MycG4,33 nM,32 nM,marked selectivity,286 nM,40 nM,remarkable selectivity,~12000 nM
COc1cnc2c(c1)C(=O)c1c-2n(CCCN2CCCC2)c(=O)c2cc([N+](=O)[O-])ccc12 [Compound 9],less well-defined MycG4 complexes,11 nM,11 nM,much less selectivity,28 nM,12 nM,remarkable selectivity,5170 nM
COc1cnc2c(c1)C(=O)c1c-2n(CCCNC2=NCCS2)c(=O)c2cc([N+](=O)[O-])ccc12 [Compound 12],less well-defined MycG4 complexes,7 nM,7 nM,much less selectivity,14 nM,7 nM,remarkable selectivity,3620 nM
